Values joined by “and” are separate entries in the source; they are usually repeats but may differ in a detail not shown here. Identical values can stand only once.
Legend:
[1] = Stability of radiotracer at room temperature (radiochemical purity over time); format: physicochemical; conditions: good manufacturing practice grade for human use, 20 MBq/nmol
Method: [^61Cu]Cu-DOTAGA-PSMA-I&T and [^61Cu]Cu-NODAGA-PSMA-I&T were synthesized with radiolabeling yield of more than 98% and radiochemical purity of more than 97% (radio–high-performance liquid chromatography analysis) at an apparent molar activity of 24 MBq/nmol. Thus, no purification was required after labeling. Although [^61Cu]Cu-DOTAGA-PSMA-I&T needed elevated temperature (95°C) and 15 min of reaction time, [^61Cu]Cu-NODAGA-PSMA-I&T was synthesized at room temperature within 5 min. After 4 h at room temperature, the radiochemical purity of [^61Cu]Cu-DOTAGA-PSMA-I&T dropped to approximately 90%, whereas it remained stable (∼97%) for [^61Cu]Cu-NODAGA-PSMA-I&T. All analytic data and quality control results are provided in Supplemental Figures 1 and 2 and in Supplemental Tables 1 and 2.
With inexpensive ^natNi as the starting material, highly pure ^61Cu could be produced with radionuclidic purity exceeding 99.99% at 12 h after synthesis (details on the production will be published elsewhere). The preparation of [^61Cu]Cu-NODAGA-PSMA-I&T was performed in widely used buffers at room temperature within 5 min. […] High labeling yields and suitable molar activities for clinical use eliminate the need for any purification step after labeling. […]

LNCaP cells = test: Cellular uptake and distribution (surface-bound, internalized) in LNCaP cells; format: cell-based; conditions: 1 h, 37°C
Method: (§1) The lipophilicity of [^61Cu]Cu-DOTAGA-PSMA-I&T and [^61Cu]Cu-NODAGA-PSMA-I&T was assessed by determining the distribution coefficient in a 1:1 mixture of 1-octanol–to–phosphate-buffered saline at pH 7.4, in comparison with all reference radiotracers. Inhibitory concentration of 50% (IC50) was assessed by competition binding on lymph node carcinoma of the prostate (LNCaP) using ((S)-1-carboxy-5-(4-(-^125I-iodo-benzamido)pentyl)carbamoyl)-L-glutamic acid as the reference radioligand. Cellular uptake and distribution were assessed in LNCaP cells at 5, 15, 30, 60, and 120 min after exposure to the radioligand at 37°C, either alone or in the presence of 10 µM 2-(phosphonomethyl)pentanedioic acid to distinguish between specific and nonspecific uptake.
FIGURE 1. In vitro assessment in LNCaP cells after 1 h at 37°C. (A) Competition binding activity curves of ^natCu-DOTAGA-PSMA-I&T, ^natCu-NODAGA-PSMA-I&T, and ^natGa-PSMA-11 on LNCaP cells after 1 h of incubation on ice, using ((S)-1-carboxy-5-(4-(-^125I-iodo-benzamido)pentyl)carbamoyl)-L-glutamic acid ([^125I-BA]KuE) at concentration of 0.2 nM as reference radioligand. (B) Cellular uptake (surface-bound + internalized). Cell surface–bound and internalized fractions are indicated. Results represent mean ± SD of specific (total − nonspecific) uptake from minimum of 2 separate experiments, each in triplicate.

[2] = Human dosimetry estimates (OLINDA/EXM version 1.0) from mouse biodistribution; conditions: standard adult man phantom; mouse kinetics assumed same as human
Method: Additional biodistribution data were generated in healthy BALB/c mice using [^64Cu]Cu-NODAGA-PSMA-I&T at 1, 4, 12, and 24 h after injection and combined with the data of [^61Cu]Cu-NODAGA-PSMA-I&T at 1 and 4 h after injection. Non–decay-corrected biodistribution data for ^61Cu (t1/2, 3.33 h) were used to generate time–activity curves for [^61Cu]Cu-NODAGA-PSMA-I&T. OLINDA/EXM version 1.0 (Vanderbilt University) was used for the dosimetry estimates, as described in the supplemental materials.

[3] = tested on: patient with metastatic prostate cancer; test: First-in-human PET/CT imaging; format: in vivo; conditions: 105 MBq/32 µg i.v., 3 h after tracer administration
Method: [^61Cu]Cu-NODAGA-PSMA-I&T was produced at the Nuclear Medicine Department of the Klinikum Rechts der Isar (Technical University of Munich) for human use. It was applied according to §13.2b of the German pharmaceutical law, and the requirement to obtain consent for the retrospective data analysis was waived. The manufacture of the tracer was performed via an automated process through a GE Healthcare FASTlab 2 module. Details on the production and quality controls are described in the supplemental materials. A dose of 105 MBq/32 µg was administered intravenously to a patient with known metastatic prostate cancer before ^177Lu-labeled PSMA radiopharmaceutical therapy. The patient was coinjected with 10 mg of furosemide (Lasix; Sanofi-Aventis). Imaging was performed 3 h after tracer administration on a Biograph Vision PET/CT scanner (Siemens Healthineers). Images were obtained from the skull to mid-thigh and reconstructed into multiplanar PET, CT, and fused PET/CT images. CT was used for attenuation correction.
FIGURE 4. Administration of [^61Cu]Cu-NODAGA-PSMA-I&T, in person with metastatic castration-resistant prostate cancer with disease progression, after abiraterone and docetaxel therapy before ^177Lu-labeled PSMA radiopharmaceutical therapy. Imaging was performed 3 h after tracer administration. […] Patient has also 1 kidney after left nephrectomy.

[4] = Lipophilicity: distribution coefficient in 1:1 1-octanol/phosphate-buffered saline at pH 7.4; format: physicochemical
Method: as §1

Compound: O=C([O-])CN1CCN(CC(=O)[O-])CCN(C(CCC(=O)N[C@H](Cc2ccc(O)c(I)c2)C(=O)N[C@H](Cc2ccccc2)C(=O)N[C@H](CCCCNC(=O)CCCCCCC(=O)NCCCC[C@H](NC(=O)N[C@@H](CCC(=O)O)C(=O)O)C(=O)O)C(=O)O)C(=O)O)CC1.[61Cu+2] (stereo partly drawn) [[^61Cu]Cu-NODAGA-PSMA-I&T, NODAGA-(l-y)fk(sub-KuE)]
- Time stable at room temperature [1]: up to 9 h
- Cellular uptake (surface-bound + internalized) (LNCaP cells; specific uptake): 22.4% ± 3.3%
- Internalized fraction (LNCaP cells; % of applied activity): 11.7 ± 1.6%
- Surface-bound fraction (LNCaP cells; % of applied activity): 10.8 ± 1.8%
- Effective dose [2]: 0.0142 mSv/MBq and 1.42E−02 mSv/MBq
- Total absorbed dose, men: Adrenals [2]: 8.39E−02 mGy/MBq
- Total absorbed dose, men: Brain [2]: 6.18E−05 mGy/MBq
- Total absorbed dose, men: Gallbladder wall [2]: 2.30E−02 mGy/MBq
- Total absorbed dose, men: Heart wall [2]: 6.94E−03 mGy/MBq
- Total absorbed dose, men: Kidneys [2]: 1.74E+00 mGy/MBq
- Total absorbed dose, men: LLI wall [2]: 4.64E−03 mGy/MBq
- Total absorbed dose, men: Liver [2]: 2.51E−02 mGy/MBq
- Total absorbed dose, men: Lungs [2]: 6.11E−03 mGy/MBq
- Total absorbed dose, men: Muscle [2]: 6.00E−03 mGy/MBq
- Total absorbed dose, men: Osteogenic cells [2]: 5.31E−03 mGy/MBq
- Total absorbed dose, men: Pancreas [2]: 4.83E−02 mGy/MBq
- Total absorbed dose, men: Red marrow [2]: 1.11E−02 mGy/MBq
- Total absorbed dose, men: Skin [2]: 2.90E−03 mGy/MBq
- Total absorbed dose, men: Small intestine [2]: 3.79E−02 mGy/MBq
- Total absorbed dose, men: Spleen [2]: 7.37E−02 mGy/MBq
- Total absorbed dose, men: Stomach wall [2]: 1.71E−02 mGy/MBq
- Total absorbed dose, men: Testes [2]: 5.39E−04 mGy/MBq
- Total absorbed dose, men: Thymus [2]: 1.67E−03 mGy/MBq
- Total absorbed dose, men: Thyroid [2]: 4.99E−04 mGy/MBq
- Total absorbed dose, men: Total body [2]: 1.38E−02 mGy/MBq
- Total absorbed dose, men: ULI wall [2]: 1.43E−02 mGy/MBq
- Total absorbed dose, men: Urinary bladder wall [2]: 2.06E−03 mGy/MBq
- SUVmax, kidney (right) [3]: 57.3
- SUVmax, liver [3]: 6.5
- SUVmax, salivary gland (right parotid gland) [3]: 20.5
- SUVmax, tumor lesion left liver lobe [3]: 23.6
- SUVmax, tumor lesion right lower pubic bone [3]: 154.2
- SUVmax, tumor lesion right scapula [3]: 86.4
- SUVmax, tumor lesion sacral bone [3]: 16.5
- SUVmean, kidney (right) [3]: 37.9
- SUVmean, liver [3]: 3.4
- SUVmean, salivary gland (right parotid gland) [3]: 12.6
- SUVmean, tumor lesion left liver lobe [3]: 11.7
- SUVmean, tumor lesion right lower pubic bone [3]: 83.7
- SUVmean, tumor lesion right scapula [3]: 55.3
- SUVmean, tumor lesion sacral bone [3]: 9.9
- logDpH7.4 [4]: −2.95 ± 0.08

Source: paper PMC11372264, “^61Cu-PSMA–Targeted PET for Prostate Cancer: From Radiotracer Development to First-in-Human Imaging” (Journal of Nuclear Medicine, 2024)
